This is an account of results in patent publication US10183944B2 (Asana Biosciences, LLC, priority 2011, dated 2019).

For experiment [1], the target named is Syk (356-635 amino acids) catalytic domain (Homo sapiens (Human), UniProt P43405). Briefly: Inhibition of enzymatic Syk kinase activity (radiometric). As to conditions: read-out: IC50 Syk. The format is biochemical. The procedure, abridged:
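Human Syk (356-635) kinase domain (0.035–7.5 ng/reaction) preincubated with compound 30 minutes at room temperature, then reacted with pG4T substrate, 100 μM ATP (stock) and γ-32P-ATP for 10 minutes at 30° C. Reaction stopped with HCl/ATP, spotted on P81 paper, washed and counted by scintillation. Percent inhibition versus no-compound counts.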

In the next experiment the target is JAK2 (Homo sapiens (Human), UniProt O60674). As to the kind of experiment: Inhibition of enzymatic JAK2 kinase activity (TR-FRET). The format is biochemical. As to conditions: read-out: IC50 JAK. An excerpt: The objective of this assay was to screen compounds in a Time-resolved fluorescence resonance energy transfer (TR-FRET) Enzymatic assay method for their potential to inhibit JAK2 (Janus kinase) activity.
JAK2, sequence (O60674 808-1132): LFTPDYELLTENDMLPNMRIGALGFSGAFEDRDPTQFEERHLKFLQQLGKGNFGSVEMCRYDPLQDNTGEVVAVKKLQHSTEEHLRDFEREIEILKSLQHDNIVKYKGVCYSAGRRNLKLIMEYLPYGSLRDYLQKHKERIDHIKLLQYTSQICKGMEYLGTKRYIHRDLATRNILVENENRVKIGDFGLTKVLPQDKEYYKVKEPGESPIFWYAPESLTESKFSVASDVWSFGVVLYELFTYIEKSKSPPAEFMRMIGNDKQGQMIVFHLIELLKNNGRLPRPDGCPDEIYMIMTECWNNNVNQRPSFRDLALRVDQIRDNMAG
TR-FRET assays are homogeneous proximity assays where Eu-labeled antiphosphotyrosine antibody binds to the phosphorylated substrates labeled with Ulight fluorescence acceptor. Eu can transfer energy to Ulight accepter in the complex and the interaction of two dye-labeled binding partners is detected by the energy transfer between a donor and an acceptor dye, and the subsequent light emission by the acceptor dye. The intensity of the light emission is proportional to the level of Ulight peptide phosphorylation.
Two μL of 10% DMSO in blank, substrate control and positive control wells and 2 μL of test compound in test wells was added. Thirteen μL of assay buffer in blank and substrate control wells and 13 μL of Enzyme buffer mix in positive and test wells was added. The reaction mixture was incubated for 30 minutes at RT on a plate shaker. Ultra Light-pGT substrate (5 μL) [poly Glu-Tyr (4:1) labeled with U Light TM dye, a tyrosine kinase substrate] and ATP mix was added to all wells. The reaction plate was incubated for 60 minutes at RT on a plate shaker. The reaction was stopped by adding 40 mM EDTA (10 μL) in buffer. Ten μL of antibody was added to all the wells. The plate was read in a Wallac® 1420 Multilabel Counter Victor 3 instrument (Ex: 340 nm Em: 615 & 665 nm) The following calculations were made:
F@ 665 Value-Buffer blank
F@ 615 Value-Buffer blank
Ratio of F@665/F@615-Substrate Blank
% Activity=(Test Sample/Positive control)*100%
Inhibition=(100−% Activity)

Each structure is given as a SMILES string.

`N#CCC1CCN(c2ccc(Nc3nc(-c4ccccc4)nc4cn[nH]c(=O)c34)cn2)CC1` [Example 101, 2-(1-(5-((5-oxo-2-phenyl-5,6-dihydropyrimido[4,5-d]pyridazin-4-yl)amino)pyridin-2-yl)piperidin-4-yl) acetonitrile]: the half-inhibitory concentration (IC50) (in experiment [1]; on JAK2) was greater than 100 nM throughout.

As for `NC(=O)CC1CCN(c2ccc(Nc3nc(-c4ccccc4)nc4cn[nH]c(=O)c34)cn2)CC1` [Example 102, 2-(1-(5-((5-oxo-2-phenyl-5,6-dihydropyrimido[4,5-d]pyridazin-4-yl)amino)pyridin-2-yl)piperidin-4-yl) acetamide], the figures for the half-inhibitory concentration (IC50) (in experiment [1]; at JAK2) were less than 50 nM and greater than 100 nM, respectively.

For `NC(=O)CC1CCN(c2ccc(Nc3nc(N4CCCCCC4)nc4cn[nH]c(=O)c34)cc2)CC1` [Example 105, 2-(1-(4-((2-(azepan-1-yl)-5-oxo-5,6-dihydropyrimido[4,5-d]pyridazin-4-yl)amino)phenyl)piperidin-4-yl)acetamide], the IC50 (in experiment [1]; on JAK2) was less than 10 nM each time.

With `O=C(O)CN1CCN(CCOc2ccc(Nc3nc(N4CCCCCC4)nc4cn[nH]c(=O)c34)cc2)CC1` [Example 106, 2-(4-(2-(4-((2-(azepan-1-yl)-5-oxo-5,6-dihydropyrimido[4,5-d]pyridazin-4-yl)amino)phenoxy)ethyl)piperazin-1-yl) acetic acid], the IC50 (in experiment [1]; at JAK2) was less than 50 nM in each case.

With `O=C(CC1CCN(c2ccc(Nc3nc(N4CCCCCC4)nc4cn[nH]c(=O)c34)cc2)CC1)NCCO` [Example 109, 2-(1-(4-((2-(azepan-1-yl)-5-oxo-5,6-dihydropyrimido[4,5-d]pyridazin-4-yl)amino)phenyl)piperidin-4-yl)-N-(2-hydroxyethyl)acetamide], the 50% inhibitory concentration (IC50) (in experiment [1]; at JAK2) was less than 10 nM each time.

As to `O=c1[nH]ncc2nc(N3CCCCCC3)nc(Nc3ccc(OC[C@@H]4CO[C@@H](CO)CO4)cc3)c12` [Example 110, 2-(azepan-1-yl)-4-((4-(((2S,5S)-5-(hydroxymethyl)-1,4-dioxan-2-yl)methoxy)phenyl)amino)pyrimido[4,5-d]pyridazin-5(6H)-one], the half-inhibitory concentration (IC50) in experiment [1] was less than 10 nM; at JAK2, less than 50 nM.

Take `N#CCC1CCN(c2ccc(Nc3nc(N4CCCCCC4)nc4cn[nH]c(=O)c34)cc2)CC1` [Example 113, 2-(1-(4-((2-(azepan-1-yl)-5-oxo-5,6-dihydropyrimido[4,5-d]pyridazin-4-yl)amino)phenyl)piperidin-4-yl)acetonitrile]: the half-inhibitory concentration (IC50) was greater than 100 nM in experiment [1] and less than 10 nM on JAK2.

Consider `N#CCC1CCN(c2ccc(Nc3nc(N4CCC(CC#N)CC4)nc4cn[nH]c(=O)c34)cn2)CC1` [Example 114, 2-(1-(5-((2-(4-(cyanomethyl)piperidin-1-yl)-5-oxo-5,6-dihydropyrimido[4,5-d]pyridazin-4-yl)amino)pyridin-2-yl)piperidin-4-yl)acetonitrile], for which the IC50 in experiment [1] was less than 10 nM; at JAK2 it was less than 50 nM.

With `CC(C)(O)C(=O)N1CCN(CCOc2ccc(Nc3nc(N4CCCCCC4)nc4cn[nH]c(=O)c34)cc2)CC1` [Example 115, 2-(azepan-1-yl)-4-((4-(2-(4-(2-hydroxy-2-methylpropanoyl)piperazin-1-yl)ethoxy)phenyl)amino)pyrimido[4,5-d]pyridazin-5(6H)-one], the half-maximal inhibitory concentration (IC50) (in experiment [1]; at JAK2) was less than 50 nM each time.

As to `O=C(O)[C@H]1CO[C@H](COc2ccc(Nc3nc(N4CCCCCC4)nc4cn[nH]c(=O)c34)cc2)CO1` [Example 124, (2R,5S)-5-((4-((2-(azepan-1-yl)-5-oxo-5,6-dihydropyrimido[4,5-d]pyridazin-4-yl)amino)phenoxy)methyl)-1,4-dioxane-2-carboxylic acid], the IC50 (in experiment [1]; at JAK2) was less than 10 nM in each case.

As to `O=C(O)CC1CCN(CCCOc2ccc(Nc3nc(N4CCCCCC4)nc4cn[nH]c(=O)c34)cc2)CC1` [Example 126, 2-(1-(3-(4-((2-(azepan-1-yl)-5-oxo-5,6-dihydropyrimido[4,5-d]pyridazin-4-yl)amino)phenoxy)propyl)piperidin-4-yl) acetic acid], the concentration for half-maximal inhibition (IC50) in experiment [1] was less than 100 nM; at JAK2 it was less than 50 nM.

Consider `O=C(O)C[C@H]1CC[C@H](c2ccc(Nc3nc(N4CCCCCC4)nc4cn[nH]c(=O)c34)cc2)CC1` [Example 129, 2-((1R,4R)-4-(4-((2-(azepan-1-yl)-5-oxo-5,6-dihydropyrimido[4,5-d]pyridazin-4-yl)amino)phenyl)cyclohexyl)acetic acid], for which the IC50 (in experiment [1]; at JAK2) was less than 10 nM throughout.

For the compound `O=C(O)CCC1CCN(c2ccc(Nc3nc(N4CCCCCC4)nc4cn[nH]c(=O)c34)cc2)CC1` [Example 130, 3-(1-(4-((2-(azepan-1-yl)-5-oxo-5,6-dihydropyrimido[4,5-d]pyridazin-4-yl)amino)phenyl)piperidin-4-yl)propanoic acid], the concentration for half-maximal inhibition (IC50) (in experiment [1]; on JAK2) was less than 10 nM throughout.

On to `O=C(O)C1CC12CCN(c1ccc(Nc3nc(N4CCCCCC4)nc4cn[nH]c(=O)c34)cn1)CC2` (stereo not shown) [Example 134], for which the IC50 in experiment [1] was less than 50 nM; at JAK2, less than 10 nM.

On to `O=C(O)C1CC12CCN(c1ccc(Nc3nc(N4CCCCCC4)nc4cn[nH]c(=O)c34)cc1F)CC2` (stereo not shown) [Example 135, 6-(4-((2-(azepan-1-yl)-5-oxo-5,6-dihydropyrimido[4,5-d]pyridazin-4-yl)amino)-2-fluorophenyl)-6-azaspiro[2.5]octane-1-carboxylic acid], for which the 50% inhibitory concentration (IC50) (in experiment [1]; on JAK2) was less than 10 nM each time.

Consider `O=c1[nH]ncc2nc(N3CCCCCC3)nc(Nc3ccc(OCCCN4CCNCC4)cc3)c12` [Example 136, 2-(azepan-1-yl)-4-((4-(3-(piperazin-1-yl)propoxy)phenyl)amino)pyrimido[4,5-d]pyridazin-5(6H)-one], for which the concentration for half-maximal inhibition (IC50) (in experiment [1]; at JAK2) was less than 50 nM in each case.

For `CC(C)(O)C1CCN(c2ccc(Nc3nc(N4CCCCCC4)nc4cn[nH]c(=O)c34)cc2)CC1` [Example 139, 2-(azepan-1-yl)-4-((4-(4-(2-hydroxypropan-2-yl)piperidin-1-yl)phenyl)amino)pyrimido[4,5-d]pyridazin-5(6H)-one], the half-inhibitory concentration (IC50) in experiment [1] was less than 50 nM; on JAK2 it was less than 10 nM.

As to `CC(C)(C(=O)O)N1CCN(c2ccc(Nc3nc(N4CCCCCC4)nc4cn[nH]c(=O)c34)cc2)CC1` [Example 140, 2-(4-(4-((2-(azepan-1-yl)-5-oxo-5,6-dihydropyrimido[4,5-d]pyridazin-4-yl)amino)phenyl)piperazin-1-yl)-2-methylpropanoic acid], the IC50 (in experiment [1]; on JAK2) was less than 10 nM throughout.

Take `O=C(O)C1CC12CCN(c1ccc(Nc3nc(N4CCCCCCC4)nc4cn[nH]c(=O)c34)cc1)CC2` (stereo not shown) [Example 141, 6-(4-((2-(azocan-1-yl)-5-oxo-5,6-dihydropyrimido[4,5-d]pyridazin-4-yl)amino)phenyl)-6-azaspiro[2.5]octane-1-carboxylic acid]: the IC50 in experiment [1] is less than 50 nM; on JAK2, less than 10 nM.

As for `CC(C)(C(=O)O)C1CCN(c2ccc(Nc3nc(N4CCCCCC4)nc4cn[nH]c(=O)c34)cc2)CC1` [Example 142, 2-(1-(4-((2-(azepan-1-yl)-5-oxo-5,6-dihydropyrimido[4,5-d]pyridazin-4-yl)amino)phenyl)piperidin-4-yl)-2-methylpropanoic acid], the figures for the IC50 (in experiment [1]; at JAK2) were less than 50 nM and less than 10 nM, respectively.

With `CC(C)(C(=O)O)C1CCN(c2ccc(Nc3nc(-c4ccccc4)nc4cn[nH]c(=O)c34)cc2)CC1` [Example 143, 2-methyl-2-(1-(4-((5-oxo-2-phenyl-5,6-dihydropyrimido[4,5-d]pyridazin-4-yl)amino)phenyl)piperidin-4-yl)propanoic acid], the IC50 in experiment [1] was less than 50 nM; on JAK2, greater than 100 nM.

Consider `O=C(O)CN1CCN(c2ccc(Nc3nc(N4CCCCCC4)nc4cn[nH]c(=O)c34)cn2)CC1` [Example 144, 2-(4-(5-((2-(azepan-1-yl)-5-oxo-5,6-dihydropyrimido[4,5-d]pyridazin-4-yl)amino)pyridin-2-yl)piperazin-1-yl)acetic acid], for which the concentration for half-maximal inhibition (IC50) (in experiment [1]; on JAK2) was less than 100 nM each time.

As to `N#CCC1CCN(c2nc(Nc3ccc(N4CCC5(CC4)CC5C(=O)O)nc3)c3c(=O)[nH]ncc3n2)CC1` (stereo not shown) [Example 148, 6-(5-((2-(4-(cyanomethyl)piperidin-1-yl)-5-oxo-5,6-dihydropyrimido[4,5-d]pyridazin-4-yl)amino)pyridin-2-yl)-6-azaspiro[2.5]octane-1-carboxylic acid], the IC50 (in experiment [1]; on JAK2) was less than 50 nM in each case.
